# Tests used:
# flinch jump = assay: Flinch-jump test (FJ); format: in vivo, male albino rats, Charles River (Sprague-Dawley) CD strain; conditions: Rattus norvegicus, rats, 2 hours, read-out: ANALGESIC ACTIVITY ED50, FJ 2 hours
# Excerpt: Tests Using Electrical Nociceptive Stimuli
# A modification of the flinch-jump procedure of Tenen, Psychopharmacologia, 12, 278-285 (1968) is used for determining pain thresholds. Male albino rats (175-200 g.) of the Charles River (Sprague-Dawley) CD strain are used. Prior to receiving the drug, the feet of each rat are dipped into a 20% glycerol/saline solution. The animals are then placed in a chamber and presented with a series of 1-second shocks to the feet which are delivered in increasing intensity at 30-second intervals. These intensities are 0.26, 0.39, 0.52, 0.78, 1.05, 1.31, 1.58, 1.86, 2.13, 2.42, 2.72 and 3.04 mA. Each animal's behavior is rated for the presence of (a) flinch, (b) squeak and (c) jump or rapid forward movement at shock onset. Single upward series of shock intensities are presented to each rat just prior to, and at 0.5, 2, 4 and 24 hours subsequent to drug treatment.
# (§1) Results of the above tests are recorded as percent maximum possible effect (% MPE). The % MPE of each group is statistically compared to the % MPE of the standard and the predrug control values. The % MPE is calculated as follows: [formula]
# (§2) By means of the above procedures, the analgesic activity of several compounds of this invention and of certain prior art compounds are determined. The data are reported in terms of maximum possible effect.
# (§3) PBQ=phenylbenzoquinone-induced writhing; TF=tail flick; HP=hot plate; RTC=rat tail clamp; FJ=flinch jump; and TI=tail immersion assays.
# [1] = system: phenylbenzoquinone-induced writhing; assay: Suppression of phenylbenzoquinone irritant-induced writhing (PBQ); format: in vivo, Carworth Farms CF-1 mice; conditions: Mus musculus, mice, read-out: ANALGESIC ACTIVITY ED50, PBQ
# Method: Test Using Chemical Nociceptive Stimuli
# Suppression of Phenylbenzoquinone Irritant-Induced Writhing
# Groups of 5 Carworth Farms CF-1 mice are pretreated subcutaneously or orally with saline, morphine, codeine or the test compound. Twenty minutes (if treated subcutaneously) or fifty minutes (if treated orally) later, each group is treated with intraperitoneal injection of phenylbenzoquinone, an irritant known to produce abdominal contractions. The mice are observed for 5 minutes for the presence or absence of writhing starting 5 minutes after the injection of the irritant. MPE50 's of the drug pretreatments in blocking writhing are ascertained.
# as §1, §2, §3
# tail immersion = assay: Tail immersion procedure (TI); format: in vivo, male albino mice, Charles River CD-1 strain; conditions: Mus musculus, 0.5 h; tail immersion, mice, 1/2 hour; read-out: ANALGESIC ACTIVITY ED50, TI 1/2 hour
# Method: (c) Tail Immersion Procedure
# The method is a modification of the receptacle procedure developed by Benbasset, et al., Arch. int. Pharmacodyn., 122, 434 (1959). Male albino mice (19-21 g.) of the Charles River CD-1 strain are weighed and marked for identification. Five animals are normally used in each drug treatment group with each animal serving as its own control. For general screening purposes, new test agents are first administered at a dose of 56 mg./kg. intraperitoneally or subcutaneously, delivered in a volume of 10 ml./kg. Preceding drug treatment and at 0.5 and 2 hours post drug, each animal is placed in the cylinder. Each cylinder is provided with holes to allow for adequate ventilation and is closed by a round nylon plug through which the animal's tail protrudes. The cylinder is held in an upright position and the tail is completely immersed in the constant temperature waterbath (56° C.). The endpoint for each trial is an energetic jerk or twitch of the tail coupled with a motor response. In some cases, the endpoint may be less vigorous post drug. To prevent undue tissue damage, the trial is terminated and the tail removed from the waterbath within 10 seconds. The response latency is recorded in seconds to the nearest 0.5 second. A vehicle control and a standard of known potency are tested concurrently with screening candidates. If the activity of a test agent has not returned to baseline values at the 2-hour testing point, response latencies are determined at 4 and 6 hours. A final measurement is made at 24 hours if activity is still observed at the end of the test day.
# as §1, §2, §3
# rat tail clamp = assay: Haffner tail pinch procedure / rat tail clamp (RTC); format: in vivo, male albino rats, Charles River (Sprague-Dawley) CD strain; conditions: 1 hour, read-out: ANALGESIC ACTIVITY ED50, RTC 1 hour
# Method: Tests Using Pressure Nociceptive Stimuli
# Effect on the Haffner Tail Pinch Procedure
# A modification of the procedure of Haffner, Experimentelle Prufung Schmerzstillender. Mittel Deutch Med. Wschr., 55, 731-732 (1929) is used to ascertain the effects of the test compound on aggressive attacking responses elicited by a stimulus pinching the tail. Male albino rats (50-60 b.) of the Charles River (Sprague-Dawley) CD strain are used. Prior to drug treatment, and again at 0.5, 1, 2 and 3 hours after treatment, a Johns Hopkins 2.5-inch "bulldog" clamp is clamped onto the root of the rat's tail. The endpoint at each trial is clear attacking and biting behavior directed toward the offending stimulus, with the latency for attack recorded in seconds. The clamp is removed in 30 seconds if attacking has not yet occurred, and the latency of response is recorded as 30 seconds. Morphine is active at 17.8 mg./kg. (i.p.).
# as §1, §2, §3
# hot plate = assay: Mouse hot plate analgesic testing (HP); format: in vivo, mice; conditions: Mus musculus; hot plate, mice
# Method: (§4) Tests Using Thermal Nociceptive Stimuli
# (a) Mouse Hot Plate Analgesic Testing
# The method used is modified after Woolfe and MacDonald, J. Pharmacol. Exp. Ther., 80, 300-307 (1944). A controlled heat stimulus is applied to the feet of mice on a 1/8" thick aluminum plate. A 250 watt reflector infrared heat lamp is placed under the bottom of the aluminum plate. A thermal regulator, connected to thermistors on the plate surface, programs the heat lamp to maintain a constant temperature of 57° C. Each mouse is dropped into a glass cylinder (61/2" diameter) resting on the hot plate, and timing is begun when the animal's feet tough the plate. The mouse is observed at 0.5 and 2 hours after treatment when the test compound for the first "flicking"movements of one or both hind feet, or until 10 seconds elapse without such movements. Morphine has an MPE50 =4-5.6 mg./kg. (s.c.).
# as §1, §2, §3
# tail flick = assay: Mouse tail flick analgesic testing (TF); format: in vivo, mice; conditions: Mus musculus; tail flick, mice
# Excerpt: as §4
# (b) Mouse Tail Flick Analgesic Testing
# Tail flick testing in mice is modified after D'Amour and Smith, J. Pharmacol. Exp. Ther., 72, 74-79 (1941), using controlled high intensity heat applied to the tail. Each mouse is placed in a snug-fitting metal cylinder, with the tail protruding through one end. This cylinder is arranged so that the tail lies flat over a concealed heat lamp. At the onset of testing, an aluminum flag over the lamp is drawn back allowing the light beam to pass through the slit and focus onto the end of the tail. A timer is simultaneously activated. The latency of a sudden flick of the tail is ascertained. Untreated mice usually react within 3-4 seconds after exposure to the lamp. The end point for protection is 10 seconds. Each mouse is tested at 0.5 and 2 hours after treatment with morphine and the test compound. Morphine has an MPE50 of 3.2-5.6 mg./kg. (s.c.).
# as §1, §2, §3
# [2] = system: central nervous system activity; conditions: Loev et al. 1973; cited from earlier work
# hashish activity = conditions: Bergel et al. 1943, cited from earlier work
structure (smiles),measurement,setting,value
"CCCCCC(C)Oc1cc(O)c2c(c1)OC(C)(C)[C@@H]1CC[C@@H](O)C[C@@H]21 (relative stereo) [OCH(CH3)C5 H11, dl-6aβ,7,8,9,10,10aα-Hexahydro-1-Hydroxy-6,6-Dimethyl-3-(2-Heptyloxy)-6H-Dibenzo[b,d]pyran-9β-ol]",ED50,flinch jump,0.3 mg/kg
same,ED50,[1],0.16 mg/kg
same,ED50,tail immersion,0.7 mg/kg
same,ED50,rat tail clamp,0.34 mg/kg
same,ED50,hot plate,1.2 mg/kg
same,ED50,tail flick,0.46 mg/kg
CCCCCC(C)Oc1cc(O)c2c(c1)OC(C)(C)C1=C2CC(C)CC1 (stereo not shown) [--OCH(CH3)C5 H11],less active in central nervous system activity than the corresponding compound with the alkyl side chain directly attached,[2],50%
same,times as active as the compound in which oxygen is replaced by methylene,[2],5 times
CCCCOc1cc(O)c2c(c1)OC(C)(C)C1=C2CC(C)CC1 (stereo not shown) [butoxy],biological activity on replacing the 3-pentyl group by alkoxy,hashish activity,biological inactivity
CCCCCCOc1cc(O)c2c(c1)OC(C)(C)C1=C2CC(C)CC1 (stereo not shown) [hexoxy],biological activity on replacing the 3-pentyl group by alkoxy,hashish activity,biological inactivity
same,hashish activity,hashish activity; at 10 to 20 mg./kg.,feeble hashish activity
CCCCCCCCOc1cc(O)c2c(c1)OC(C)(C)C1=C2CC(C)CC1 (stereo not shown) [octoxy],biological activity on replacing the 3-pentyl group by alkoxy,hashish activity,biological inactivity
CCCCCOc1cc(O)c2c(c1)OC(C)(C)C1=C2CC(C)CC1 (stereo not shown) [pentoxy],biological activity on replacing the 3-pentyl group by alkoxy,hashish activity,biological inactivity

# — US4243674A, “9-Hydroxydibenzo[b,d]pyrans and intermediates therefore” (priority 1978, dated 1981)
